Consider six compounds from publication PMC10945480 (Journal of Medicinal Chemistry, 2024).

The test system of series [1] is washed human platelets. Put plainly: U46619-induced platelet aggregation. The settings on record: Platelet; washed human platelets, U46619 (1 μM). It counts as cell-based. As to the method:
(§1) The antiplatelet effects of the JUG derivatives were evaluated by measuring human platelet aggregation, which can be regulated by cell surface PDI. Platelet aggregation was induced with platelet activators U46619 (a mimetic of thromboxane A2) and collagen (binding to GPVI).
(§2) Washed human platelets were prepared from acid citrate dextrose-anticoagulated blood of healthy human volunteers as described previously.[73] The study was approved by the Institutional Review Board of Kaohsiung Medical University, and informed consent was obtained from every volunteer. Platelet aggregation was measured by using a turbidimetric aggregometer (Chrono-Log Co., USA) under stirring conditions (1200 rpm) at 37 °C. The extent of platelet aggregation was measured as the maximal increase of light transmission after the addition of the stimulators U46619 and collagen.[73] In the TCIPA assay, platelet aggregation was induced by A549 (1 × 10^4 cells/mL), MDA-MB-231 (1 × 10^2 cells/mL), or RPMI8226 (1 × 10^5 cells/mL) cancer cells in the presence of 0.375% plasma.[74]

Series [2] concerns washed human platelets. Briefly: Collagen-induced platelet aggregation. It counts as cell-based. The settings on record: Platelet; washed human platelets, collagen (5 μg/mL). As to the method:
as §1, §2

A short description of series [3]: Parallel artificial membrane permeability assay (PAMPA). The settings on record: 50 μM, 25 ℃, 3 h, verapamil = 100%, ranitidine = 0%. As to the method:
1. Parallel artificial membrane permeability assay (PAMPA). […]
evolution instruments from pION Inc. In the PAMPA assay, a set of sandwich plates consists of a 96-well microtiter donor plate at the bottom and a 96-well filter acceptor plate on the top from […]
The stock solutions of samples were prepared at 10 mM concentrations in DMSO and stored at 0 ℃ before use. Before being added to a 96-well filter plate, the stock solution was diluted first with buffer to achieve a final sample concentration of 50 μM and to reduce the DMSO concentration below 1% (v/v). Each well of the 96-well donor plate was filled with a 200 μL diluted sample solution (50 μM), and the 96-well filter acceptor plate was then wetted with a 5 μL 2% w/v dioleyoylphosphatidylcholine (DOPC) in n-dodecane and subsequently placed on the donor wells.
Immediately, the acceptor wells were filled with 200 μL of buffer solution and the PAMPA plate sandwich was sealed and incubated at 25 ℃ for 3 h. After reaching the permeation time, the PAMPA plate sandwich was separated and transferred to 96-well UV plates respectively. The amounts of drugs in both the donor and acceptor compartments were measured by comparing the experimental spectra with the UV spectrum (220∼400 nm) obtained from reference standards.

Another series deals with glioma U87. Put plainly: Cell viability, resazurin assay, U87. The settings on record: Homo sapiens, 24 h, read-out: U87 IC50.
For the next series, the system named is lung cancer A549. Briefly: Cell viability, resazurin assay, A549. The settings on record: Homo sapiens, A549, 24 h, read-out: A549 IC50.
Series [4] deals with multiple myeloma RPMI8226. Briefly: Cell viability, resazurin assay, RPMI8226. The settings on record: for S.I. (EAhy926/RPMI8226), selectivity index: 24 h IC50 ratio; for IC50: Homo sapiens, RPMI-8226, 24 h, read-out: RPMI8226 IC50.
Method: (§3) Cells were maintained in a humidified incubator at 37 °C in 5% CO2, and cell viability was determined with the resazurin assay (Cayman Chemical, USA) after the incubation with compounds for indicated concentrations and times or DMSO as control.[72]
The subject of series [5] is human vascular endothelial EA.hy926 cells. Put plainly: Cell viability, resazurin assay, EA.hy926. The settings on record: EA.hy 926, 24 h, read-out: EAhy926 IC50.
Method: as §3
The test system of another series is breast cancer MDA-MB-231. Put plainly: Cell viability, resazurin assay, MDA-MB-231. The settings on record: Homo sapiens, MDA-MB-231, 24 h, read-out: MDA-MB-231 IC50.
In series [6] the target is purified human recombinant PDI (rPDI) (Homo sapiens, UniProt P07237). Briefly: Recombinant PDI reductase activity (Di-E-GSSG assay). The settings on record: read-out: rPDI IC50; human recombinant PDI, Di-E-GSSG, 5 μM DTT.
Method: (§4) In this assay, a nonfluorescent substrate, dieosin glutathione disulfide (Di-E-GSSG), was reduced into a fluorescent product eosin-glutathione (E-GSH) by platelet surface PDI in the presence of 5 μM dithiothreitol (DTT).
The target of a further series is platelet surface PDI (Homo sapiens, UniProt P07237). Put plainly: Cell surface PDI reductase activity on intact human platelets (Di-E-GSSG assay). The settings on record: read-out: Surface PDI IC50; intact human platelets, Di-E-GSSG, 5 μM DTT.
Series [7] in a line: UPLC-MS analysis of compound metabolites in water with or without GSH. It is filed as physicochemical. The settings on record: 37 °C, 30 min. As to the method:
GSH is the major cellular nonprotein thiol, which exists within cells at millimolar concentrations (1–8 mM) while is present extracellularly at only a few micromolar.[53] The high concentrations of intracellular GSH thus may compete with the binding of PDI to covalent PDI inhibitors.[54] […] In this assay, the noncovalent PDI inhibitor isoquercetin was used as a negative control.
Compounds (400 μM) were incubated in water (250 μL) with or without GSH (4 mM) at 37 °C for 30 min. The compound mixture was diluted with methanol (250 μL) and used for UPLC-MS analysis Metabolite analysis was performed on an ACQUITY UPLC I-Class/SQ Detector 2 (Waters, Milford, USA). The reverse phase BEH C18 column (100 mm × 2.1 mm, 1.7 μm, Waters) and VanGuard BEH C18 guard column (5 mm × 2.1 mm, 1.7 μm, Waters) were used. All data were acquired by Empower 3. The mobile phase for LC separation was Millipore water (A) and acetonitrile (B), and the program was as follows: 0.00 min 90% A → 0.50 min 90% A → 6.50 min 5% A → 8.50 min 5% A → 8.60 min 90% A → 9.00 min 90% A; at a rate of 0.4 mL/min for 9.00 min with 5 μL per injection. The temperature of the column oven was maintained at 40 °C. Mass spectrometer parameters were set as follows: cone voltage, 40.0 V, for positive/negative ion mode; desolvation temperature, 200 °C; cone gas flow(N2), 1 L/h; and desolvation gas flow (N2), 650 L/h.

Series [8] has as its system washed human platelets coincubated with A549, MDA-MB-231, or RPMI8226 cancer cells. Briefly: Tumor cell-induced platelet aggregation (TCIPA). The settings on record: anti-TF antibody 20 μg/mL, hirudin 0.01 μM, aspirin 100 μM, ticagrelor 1 μM. It counts as cell-based.
Series [9] deals with washed human platelets coincubated with A549 cancer cells. Put plainly: Tumor cell-induced platelet secretion (PDGF, ATP). It is filed as cell-based. Here is the method: (a) Washed human platelets were coincubated with A549 cancer cells under the same conditions as described in Figure 4. Secretion of PDGF and ATP were determined with the enzyme-linked immunosorbent assay (ELISA) and bioluminescent assay, respectively. (b) A549 cancer cells were coincubated with washed human platelets at 37 °C and 5% CO2 in a cell culture incubator for 48 h. After washing with PBS, the numbers of viable cancer cells were determined by trypan blue exclusion. Data are mean ± SEM of at least three independent experiments.
Washed human platelets were coincubated with cancer cells under the same conditions as described in the TCIPA assay. After a 25 min incubation in the aggregometer, the samples were centrifuged at 13,000g for 1 min. The concentrations of PDGF-BB and ATP in the supernatants were determined using an ELISA kit (Abcam, Cambridge, UK) and an ATP bioluminescent assay kit (Sigma, MO, USA), respectively.[52]

Chain of platelet surface PDI (P07237 18-508): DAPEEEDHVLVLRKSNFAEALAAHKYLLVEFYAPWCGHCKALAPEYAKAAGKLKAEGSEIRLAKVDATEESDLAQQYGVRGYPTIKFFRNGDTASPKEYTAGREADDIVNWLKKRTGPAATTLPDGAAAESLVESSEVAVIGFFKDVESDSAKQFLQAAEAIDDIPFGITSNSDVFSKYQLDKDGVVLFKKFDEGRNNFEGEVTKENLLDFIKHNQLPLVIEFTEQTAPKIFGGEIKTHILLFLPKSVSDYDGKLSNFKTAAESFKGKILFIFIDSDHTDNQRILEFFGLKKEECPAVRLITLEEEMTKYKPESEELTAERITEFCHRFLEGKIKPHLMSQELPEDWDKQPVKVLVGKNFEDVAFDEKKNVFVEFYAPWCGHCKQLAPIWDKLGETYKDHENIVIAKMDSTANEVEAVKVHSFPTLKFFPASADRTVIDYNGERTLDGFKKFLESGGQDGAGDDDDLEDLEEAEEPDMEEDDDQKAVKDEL
Chain of purified human recombinant PDI (rPDI) (P07237 18-508): as above
Method for breast cancer MDA-MB-231: as §3
Method for glioma U87: as §3
Method for lung cancer A549: as §3
Method for platelet surface PDI: as §4

`CC(C)(C)c1ccc(CSC2=CC(=O)c3cccc(O)c3C2=O)cc1` [Compound 20, 2-((4-(tert-Butyl)benzyl)thio)-8-hydroxynaphthalene-1,4-dione]: the IC50 in the series with washed human platelets [1] was 6.32 ± 0.3 µM; in the series on washed human platelets [2], 2.92 ± 0.77 µM; in the series on glioma U87, greater than 20 µM; in the series on lung cancer A549, greater than 50 µM; in series [4], 4.33 ± 0.34 µM; in series [5], greater than 20 µM. Moreover, the half-maximal inhibitory concentration (IC50) in the series on breast cancer MDA-MB-231 was greater than 20 µM; in series [6], 2.01 ± 0.55 µM; at platelet surface PDI, 1.2 ± 0.31 µM. The “Permeability (%)” value in series [3] is listed as 17.1%. The “S.I. (EAhy926/RPMI8226), selectivity index” value in [4] was greater than 4.6.
For `COc1ccc(OC2=CC(=O)c3cccc(O)c3C2=O)cc1` [Compound 21, 2-(4-Methoxyphenoxy)-8-hydroxynaphthalene-1,4-dione], the IC50 with washed human platelets [1] was 1.35 ± 0.13 µM; in the series with washed human platelets [2] it was 0.35 ± 0.03 µM; in the series with glioma U87 it was 12.6 ± 0.68 µM; with lung cancer A549 it was 12 ± 1.47 µM; in series [4] it was 0.57 ± 0.02 µM; in [5], 6.03 ± 0.07 µM. Besides, the IC50 came out at 6.62 ± 1.79 µM in the series on breast cancer MDA-MB-231, 1.37 ± 0.26 µM in series [6] and 1.12 ± 0.31 µM on platelet surface PDI. For the same compound, the “Permeability (%)” value in series [3] stood at 61.4%. In series [4], the “S.I. (EAhy926/RPMI8226), selectivity index” value turned out to be 10.6.
For `O=C1C=C(c2ccc(O)cc2O)C(=O)c2c(O)cccc21` [Compound 29, 2-(2,4-Dihydroxyphenyl)-8-hydroxynaphthalene-1,4-dione], the half-inhibitory concentration (IC50) in the series on washed human platelets [1] was determined as 4.61 ± 1.1 µM; with washed human platelets [2] it was 7.04 ± 1.71 µM; with glioma U87, 5.13 ± 0.29 µM; with lung cancer A549 it was 7.59 ± 0.16 µM; in series [4], 3.88 ± 0.23 µM; in series [5], 5.49 ± 0.09 µM. In addition, the IC50 is 13.1 ± 1.59 µM in the series with breast cancer MDA-MB-231, 0.77 ± 0.2 µM in series [6] and 0.53 ± 0.11 µM at platelet surface PDI. The “Permeability (%)” value in [3] came to 42.95%. The “S.I. (EAhy926/RPMI8226), selectivity index” value in series [4] came out at 1.4.
Turning to `COc1ccc(SC2=C(c3ccc(O)cc3O)C(=O)c3c(O)cccc3C2=O)cc1` [Compound 30, 2-(2,4-Dihydroxyphenyl)-3-((4-methoxyphenyl)thio)-8-hydroxynaphthalene-1,4-dione], the half-maximal inhibitory concentration (IC50) with washed human platelets [1] worked out at 1.37 ± 0.03 µM; in the series with washed human platelets [2], 5.19 ± 1.22 µM; in the series with glioma U87, 11.2 ± 1.01 µM; with lung cancer A549 it was 17.55 ± 0.06 µM; in series [4], 5.89 ± 0.32 µM; in [5], 11 ± 0.33 µM. Moreover, the half-inhibitory concentration (IC50) with breast cancer MDA-MB-231 amounted to 16 ± 1.35 µM; in series [6], 2.27 ± 0.8 µM; at platelet surface PDI it was 0.47 ± 0.05 µM. In [3], the “Permeability (%)” value turned out to be 12.64%. In series [7] (400 μM in water), the “stability in aqueous conditions (UPLC-MS)” value is listed as “remained intact in aqueous conditions”. Moreover, the “GSH adduct formation after GSH treatment (UPLC-MS)” value in [7] (400 μM, GSH 4 mM) is on record as “only a small amount”. Besides, the “S.I. (EAhy926/RPMI8226), selectivity index” value in [4] was 1.9.
Take `CCCSc1nc(N[C@@H]2C[C@H]2c2ccc(F)c(F)c2)c2nnn([C@@H]3C[C@H](OCCO)[C@@H](O)[C@H]3O)c2n1` [ticagrelor, reference compound]: the “effect of comparators on TCIPA” value in series [8] is on record as “no or little effect”. Also, the “tumor cell-induced increase in extracellular PDGF and ATP (platelet secretion)” value in series [9] was “not”.
With hirudin, the “effect of comparators on TCIPA” value in series [8] is given as “able to prevent the TCIPA”.
